Consider five compounds from ChEMBL document CHEMBL1147609, “Comparison of 2-phenylspiroindenes and 2-phenylspiroindenediones as estrogen receptor ligands--modeling and binding data don't agree!” (Bioorg Med Chem Lett, 2004).

The target of test [1] is Estrogen receptor beta (Homo sapiens, UniProt Q92731). Kind of test: Binding affinity for estrogen receptor beta.
The target in test [2] is T1, Estrogen receptor (Homo sapiens, UniProt P03372).
T1 sequence (P03372 whole entry): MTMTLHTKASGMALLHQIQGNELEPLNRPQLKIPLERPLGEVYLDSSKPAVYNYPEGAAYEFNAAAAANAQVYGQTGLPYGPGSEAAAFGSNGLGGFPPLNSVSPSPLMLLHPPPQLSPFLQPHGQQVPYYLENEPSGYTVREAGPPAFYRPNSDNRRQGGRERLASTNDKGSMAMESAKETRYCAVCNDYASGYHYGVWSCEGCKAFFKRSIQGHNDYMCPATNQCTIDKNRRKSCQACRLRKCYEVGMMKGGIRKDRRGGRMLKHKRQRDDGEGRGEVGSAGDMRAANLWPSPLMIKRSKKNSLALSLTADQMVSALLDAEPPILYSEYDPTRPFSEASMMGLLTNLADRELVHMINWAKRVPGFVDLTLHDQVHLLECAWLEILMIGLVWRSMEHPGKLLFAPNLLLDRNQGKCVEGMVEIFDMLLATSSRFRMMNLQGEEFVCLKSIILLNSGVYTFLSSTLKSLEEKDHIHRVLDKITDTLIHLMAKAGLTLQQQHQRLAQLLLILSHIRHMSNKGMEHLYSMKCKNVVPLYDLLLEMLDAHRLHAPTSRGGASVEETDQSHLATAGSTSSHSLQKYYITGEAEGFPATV
Nature of the test: Binding affinity for estrogen receptor alpha.

Sequence of Estrogen receptor beta (Q92731 whole entry): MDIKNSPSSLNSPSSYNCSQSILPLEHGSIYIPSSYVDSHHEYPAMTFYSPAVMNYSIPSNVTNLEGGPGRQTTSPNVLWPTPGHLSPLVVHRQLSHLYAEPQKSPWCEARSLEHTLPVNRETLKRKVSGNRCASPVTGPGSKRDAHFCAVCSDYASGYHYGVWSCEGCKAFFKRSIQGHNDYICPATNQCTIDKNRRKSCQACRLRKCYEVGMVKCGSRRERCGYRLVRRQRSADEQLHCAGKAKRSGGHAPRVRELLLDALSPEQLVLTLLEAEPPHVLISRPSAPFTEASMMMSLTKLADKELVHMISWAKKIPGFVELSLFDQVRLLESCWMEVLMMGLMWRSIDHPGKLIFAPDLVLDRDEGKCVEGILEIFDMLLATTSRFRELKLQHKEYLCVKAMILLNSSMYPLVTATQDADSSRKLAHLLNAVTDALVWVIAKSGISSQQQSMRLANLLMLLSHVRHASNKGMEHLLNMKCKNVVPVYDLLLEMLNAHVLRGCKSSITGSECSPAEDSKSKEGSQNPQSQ

A word on the IC50: it is the concentration that gives 50% inhibition. In test [1], `Oc1ccc(C2=Cc3cc(O)ccc3C23Cc2ccc(OCCN4CCCCC4)cc2C3)cc1` (centres undefined) had an IC50 of 1.8 nM. Consider `O=C1c2ccc(OCCN3CCCCC3)cc2C(=O)C12C(c1ccc(O)cc1)=Cc1cc(O)ccc12` (centres undefined), for which the half-maximal inhibitory concentration (IC50) in test [1] was determined as 223 nM; in test [2] it was 172 nM.

`O=C1c2ccccc2C(=O)C12C(c1cccc(O)c1)=Cc1cc(O)ccc12`: the values for the IC50 in test [1] and in test [2] were 329 nM and 366 nM, respectively. For `Oc1cccc(C2=Cc3cc(O)ccc3C23Cc2ccccc2C3)c1`, in that order: 28 nM and 35 nM. Turning to `O=C1c2ccccc2C(=O)C12C(c1ccc(O)cc1)=Cc1cc(O)ccc12`, the values for the IC50 in test [1] and in test [2] were 103 nM and 91 nM, respectively.
